According to patent US10414760B2, “Cytochrome P450 inhibitors and uses thereof” (ANGION BIOMEDICA CORP., priority 2016, dated 2019):
Each block holds one molecule with its values, some of them ahead of it.

Experiments:
Assay type in all cases: biochemical
CYP17 = target: T1, CYP17 (Rattus norvegicus, UniProt P11715); experiment: CYP17 inhibition: 17α hydroxylase and C17,20 lyase activity in testis microsomes, ELISA detection; settings: for IC50: which microsome assay (rat or dog testis) not specified
T1 construct: using rat and dog testis microsomes and ELISA kits from commercial vendors; from tissue; host or cells: rat testis microsomes
T1 sequence (P11715 1-507): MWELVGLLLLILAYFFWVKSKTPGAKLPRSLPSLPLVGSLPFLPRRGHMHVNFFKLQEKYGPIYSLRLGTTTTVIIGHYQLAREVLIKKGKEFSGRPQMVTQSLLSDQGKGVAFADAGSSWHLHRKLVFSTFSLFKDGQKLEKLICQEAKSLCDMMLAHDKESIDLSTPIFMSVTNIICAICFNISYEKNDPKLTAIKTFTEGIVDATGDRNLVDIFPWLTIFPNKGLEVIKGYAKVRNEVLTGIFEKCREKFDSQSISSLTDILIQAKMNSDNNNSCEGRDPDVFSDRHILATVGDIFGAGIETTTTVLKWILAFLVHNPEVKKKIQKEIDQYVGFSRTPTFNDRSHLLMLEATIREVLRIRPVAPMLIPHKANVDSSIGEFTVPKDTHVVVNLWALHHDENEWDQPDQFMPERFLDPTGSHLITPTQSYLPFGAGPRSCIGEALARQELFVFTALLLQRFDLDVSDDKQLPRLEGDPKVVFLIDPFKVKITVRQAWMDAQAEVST
Procedure: Serum Testosterone and PSA and Tumor Testosterone Analysis. Tumor tissue obtained from mice will be homogenized in phosphate buffer (pH 7.4, 0.1 M) and homogenates centrifuged at 2000 g for 20 min. Testosterone concentrations in the serum and in the clear tissue homogenate supernatant will be determined with the ELISA kit from R&D Systems (Catalog # KGR010). Serum PSA concentrations will be measured using a PSA ELISA kit with a serum dilution according to the manufacturers instructions. • c. Breast cancer. To test the efficacy of compounds embodied herein against breast cancer, nude mice carrying human breast cancer lines that are estrogen receptor and Aromatase positive will be used. Cells will be grown in vitro and 2 million will be inoculated in Matrigel (50:50 volume ratio of cells to Matrigel). Cells will be distributed by s.c. injection at the right and left flanks or at the orthotopic sitest in 6 to 8 week old athymic nude mice (BALB/c strain) or severe combined immunodeficient mice under anesthesia. Animals will be treated with compound for 4 weeks, at which point animals will be sacrificed and collect blood samples and tumor tissue for the determination of serum and tumor estrogen levels. Tumors will be excised and a portion will be fixed in formalin for subsequent histochemical and immuno-histochemical analysis. The remainder will be snap frozen in liquid nitrogen and stored at −80° C. • 12. CYP26 inhibition activity. […] The assay is run in a 100 μL reaction volume and stopped with an equal volume of methanol. […] CYP17 inhibition assay: In vitro assays for CYP17 17α-hydroxylase and C17,20-lyase activity, assays using rat and dog testis microsomes and ELISA kits from commercial vendors for the detection of formed products are employed. […] Assays are also used that determine the activity of 17α-hydroxylase activity using P4 as a substrate and detecting HOP4 as a product (using dog testis microsomes) and the activity of C17,20-lyase by using HOP4 as a substrate and AD as a product (rat testis microsomes). • 14.
CYP17 inhibition. In vitro assays for CYP17 17α hydroxylase and C17,20 lyase activity using rat and dog testis microsomes and ELISA kits from commercial vendors for the detection of formed products were employed. […] Assays were also used that determine the activity of 17α hydroxylase activity using P4 as a substrate and detecting HOP4 as a product (using dog testis microsomes) and the activity of C17,20 lyase by using HOP4 as a substrate and AD as a product (rat testis microsomes).

CYP19 = target: T2, CYP19 (Homo sapiens, UniProt P11511); experiment: CYP19 inhibition: commercially available recombinant enzyme and assay kit
T2 construct: purchased BD Gentest 456260
T2 sequence (P11511 1-503): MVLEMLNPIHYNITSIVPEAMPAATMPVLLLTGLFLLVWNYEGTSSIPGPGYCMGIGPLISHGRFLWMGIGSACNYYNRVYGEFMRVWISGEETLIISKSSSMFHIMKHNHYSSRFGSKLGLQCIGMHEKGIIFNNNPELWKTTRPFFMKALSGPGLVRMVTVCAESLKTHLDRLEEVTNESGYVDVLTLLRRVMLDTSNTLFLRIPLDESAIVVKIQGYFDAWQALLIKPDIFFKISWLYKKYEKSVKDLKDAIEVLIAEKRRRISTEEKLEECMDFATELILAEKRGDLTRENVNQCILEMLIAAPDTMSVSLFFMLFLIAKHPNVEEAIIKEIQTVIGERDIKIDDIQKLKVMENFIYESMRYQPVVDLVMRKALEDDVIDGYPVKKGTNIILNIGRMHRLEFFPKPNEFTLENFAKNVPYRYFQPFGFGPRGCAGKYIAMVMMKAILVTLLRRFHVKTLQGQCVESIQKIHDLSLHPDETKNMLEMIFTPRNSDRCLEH
Procedure: (§1) Serum Testosterone and PSA and Tumor Testosterone Analysis. Tumor tissue obtained from mice will be homogenized in phosphate buffer (pH 7.4, 0.1 M) and homogenates centrifuged at 2000 g for 20 min. Testosterone concentrations in the serum and in the clear tissue homogenate supernatant will be determined with the ELISA kit from R&D Systems (Catalog # KGR010). Serum PSA concentrations will be measured using a PSA ELISA kit with a serum dilution according to the manufacturers instructions. • c. Breast cancer. To test the efficacy of compounds embodied herein against breast cancer, nude mice carrying human breast cancer lines that are estrogen receptor and Aromatase positive will be used. Cells will be grown in vitro and 2 million will be inoculated in Matrigel (50:50 volume ratio of cells to Matrigel). Cells will be distributed by s.c. injection at the right and left flanks or at the orthotopic sitest in 6 to 8 week old athymic nude mice (BALB/c strain) or severe combined immunodeficient mice under anesthesia. Animals will be treated with compound for 4 weeks, at which point animals will be sacrificed and collect blood samples and tumor tissue for the determination of serum and tumor estrogen levels. Tumors will be excised and a portion will be fixed in formalin for subsequent histochemical and immuno-histochemical analysis. The remainder will be snap frozen in liquid nitrogen and stored at −80° C. • 12. CYP26 inhibition activity. A substrate depletion assay for ATRA metabolism in mouse microsomes is used. […] The assay is run in a 100 μL reaction volume and stopped with an equal volume of methanol. […] CYP17 inhibition assay: In vitro assays for CYP17 17α-hydroxylase and C17,20-lyase activity, assays using rat and dog testis microsomes and ELISA kits from commercial vendors for the detection of formed products are employed. Incubation of rat testis microsomes with the substrate progesterone (P4) results, through the CYP17 17α-hydroxylase and C17,20-lyase activities, in a marked production of androstenedione (AD) in a time and enzyme-concentration dependent manner. […] In another control, microsomes isolated from rat livers, which are known to express very little or no CYP17, are shown to be devoid of this activity. Assays are also used that determine the activity of 17α-hydroxylase activity using P4 as a substrate and detecting HOP4 as a product (using dog testis microsomes) and the activity of C17,20-lyase by using HOP4 as a substrate and AD as a product (rat testis microsomes). • 14. CYP19 inhibition assay: For in vitro assays of CYP19 aromatase activity, commercially available CYP19 enzyme preparations (e.g. BD Gentest Supersomes Catalog #456260) and assay kits (e.g. BD Gentest Catalog #459520) are employed according to the manufacturers instructions.
Selectivity for other P450 enzymes. To assess the selectivity of compounds embodied herein, activity was evaluated first against CYP3A4 and CYP19 using commercially available recombinant enzymes and assay kits. To calculate a selectivity factor, the IC50 for a particular P450 enzyme was divided by the IC50 in the CYP17 combination assay.

CYP26 = target: T3, CYP26 (Mus musculus, UniProt O55127); experiment: CYP26 inhibition: substrate depletion assay for ATRA metabolism in mouse microsomes
T3 construct: tissue Xenotech; host or cells: liver microsomes of ATRA-treated mice
T3 sequence (O55127 1-497): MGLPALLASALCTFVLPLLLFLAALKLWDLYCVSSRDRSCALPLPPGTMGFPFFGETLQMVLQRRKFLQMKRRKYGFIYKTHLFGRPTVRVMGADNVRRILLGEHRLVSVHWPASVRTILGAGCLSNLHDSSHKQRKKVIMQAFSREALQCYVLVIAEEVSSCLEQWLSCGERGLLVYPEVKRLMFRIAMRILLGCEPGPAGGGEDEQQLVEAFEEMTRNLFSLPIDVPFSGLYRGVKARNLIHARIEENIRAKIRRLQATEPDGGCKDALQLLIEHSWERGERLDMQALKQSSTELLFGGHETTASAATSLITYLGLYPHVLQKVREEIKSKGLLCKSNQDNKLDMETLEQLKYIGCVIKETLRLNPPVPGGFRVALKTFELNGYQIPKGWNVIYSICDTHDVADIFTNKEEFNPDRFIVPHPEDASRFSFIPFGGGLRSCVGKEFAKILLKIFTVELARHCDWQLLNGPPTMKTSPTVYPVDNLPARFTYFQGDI
Procedure: as §1
CYP26 inhibition. […] The assay was run in a 100 μL reaction volume and stopped with an equal volume of methanol. […] Other compounds of formula (I) are similarly potent, for example with an IC50 of 1.6 nM.

SMILES: CCC(C(c1ccc2ncsc2c1)n1ccnc1)N(C)C (stereo not drawn) [Example 15, 1-(Benzo[d]thiazol-6-yl)-1-(1H-imidazol-1-yl)-N,N-dimethylbutan-2-amine]
IC50 (CYP17): < 5000 nM
IC50 (CYP19): < 1000 nM

SMILES: CC(=O)O[C@H]1CC[C@@]2(C)C(=CC[C@@H]3[C@@H]2CC[C@]2(C)C(c4cccnc4)=CC[C@@H]32)C1 [abiraterone acetate, reference compound]
Inhibition of androstenedione (AD) production from progesterone (P4) (CYP17; rat testis microsomes, 17α hydroxylase and C17,20 lyase activities): completely inhibited

SMILES: CCC(CC)C(c1ccc2nc(Br)sc2c1)n1ccnc1 (stereo not drawn) [Example 28, 2-bromo-6-(2-ethyl-1-(1H-imidazol-1-yl)butyl)benzo[d]thiazole]
IC50 (CYP17): < 5000 nM
IC50 (CYP19): < 1000 nM

SMILES: CCC(C(c1ccc2nc(N)sc2c1)n1ccnc1)N(C)CC (stereo not drawn) [Example 32, 6-(2-(Ethyl(methyl)amino)-1-(1H-imidazol-1-yl)butyl)benzo[d]thiazol-2-amine]
IC50 (CYP17): < 5000 nM
IC50 (CYP19): < 1000 nM

SMILES: CCC(C(c1ccc2nc(Br)sc2c1)n1ccnc1)N(C)CC (stereo not drawn) [Example 36, 1-(2-Bromobenzo[d]thiazol-6-yl)-N-ethyl-1-(1H-imidazol-1-yl)-N-methylbutan-2-amine]
IC50 (CYP17): < 5000 nM
IC50 (CYP19): < 1000 nM

SMILES: CCC(C(c1ccc2nc(Cl)sc2c1)n1ccnc1)N(C)CC (stereo not drawn) [Example 10, 1-(2-Chlorobenzo[d]thiazol-6-yl)-N-ethyl-1-(1H-imidazol-1-yl)-N-methylbutan-2-amine]
IC50 (CYP17): < 5000 nM
IC50 (CYP19): < 1000 nM

SMILES: CCC(CC)C(c1ccc2nc(N)sc2c1)n1ccnc1 (stereo not drawn) [Example 27, 6-(2-Ethyl-1-(1H-imidazol-1-yl)butyl)benzo[d]thiazol-2-amine]
IC50 (CYP17): < 5000 nM
IC50 (CYP19): < 1000 nM

SMILES: CCC(C(c1ccc2nc(Oc3ccc(C(=O)O)cc3)sc2c1)n1ccnc1)N(C)C (stereo not drawn) [Example 24, 4-((6-(2-(Dimethylamino)-1-(1H-imidazol-1-yl)butyl)benzo[d]thiazol-2-yl)oxy)benzoic acid]
IC50 (CYP26): < 1000 nM

SMILES: CCC(C(c1ccc2nc(NC(=O)C3(C(=O)O)CCCCC3)sc2c1)n1ccnc1)N(C)C (stereo not drawn) [Example 45, 1-((6-(2-(Dimethylamino)-1-(1H-imidazol-1-yl)butyl)benzo[d]thiazol-2-yl)carbamoyl)cyclohexanecarboxylic acid]
IC50 (CYP26): < 1000 nM

SMILES: CCC(C(c1ccc2nc(-c3cccc(-c4nn[nH]n4)c3)sc2c1)n1ccnc1)N(C)C (stereo not drawn) [Example 71, 1-(2-(3-(2H-Tetrazol-5-yl)phenyl)benzo[d]thiazol-6-yl)-1-(1H-imidazol-1-yl)-N,N-dimethylbutan-2-amine]
IC50 (CYP26): < 1000 nM

Other lines, results leading:

IC50 (CYP17): < 5000 nM
IC50 (CYP19): < 1000 nM
SMILES: CCC(C(c1ccc2nc(C(N)=O)sc2c1)n1ccnc1)N(C)C (stereo not drawn) [Example 14, 6-(2-(Dimethylamino)-1-(1H-imidazol-1-yl)butyl)benzo[d]thiazole-2-carboxamide]

IC50 (CYP17): < 5000 nM
IC50 (CYP19): < 1000 nM
SMILES: CCC(C(c1ccc2nc(C(=N)OC)sc2c1)n1ccnc1)N(C)C (stereo not drawn) [Example 13, Methyl 6-(2-(dimethylamino)-1-(1H-imidazol-1-yl)butyl)benzo[d]thiazole-2-carbimidate]

IC50 (CYP17): < 5000 nM
IC50 (CYP19): < 1000 nM
SMILES: CCC(C(c1ccc2nc(NC(N)=O)sc2c1)n1ccnc1)N(C)C (stereo not drawn) [Example 2, 1-(6-(2-(Dimethylamino)-1-(1H-imidazol-1-yl)butyl)benzo[d]thiazol-2-yl)urea]

IC50 (CYP17): < 5000 nM
IC50 (CYP19): < 1000 nM
SMILES: CCC(C(c1ccc2nc(NC(C)=O)sc2c1)n1ccnc1)N(C)CC (stereo not drawn) [Example 9, N-(6-(2-(Ethyl(methyl)amino)-1-(1H-imidazol-1-yl)butyl)benzo[d]thiazol-2-yl)acetamide]

IC50 (CYP17): < 5000 nM
IC50 (CYP19): < 1000 nM
SMILES: CCC(C(c1ccc2nc(C(=O)OC)sc2c1)n1ccnc1)N(C)C (stereo not drawn) [Example 12, Methyl 6-(2-(dimethylamino)-1-(1H-imidazol-1-yl)butyl)benzo[d]thiazole-2-carboxylate]

IC50 (CYP26): < 1000 nM
SMILES: CCC(C(c1ccc2nc(NCC(C)(C)C(=O)O)sc2c1)n1ccnc1)N(C)C (stereo not drawn) [Example 19, 3-((6-(2-(Dimethylamino)-1-(1H-imidazol-1-yl)butyl)benzo[d]thiazol-2-yl)amino)-2,2-dimethylpropanoic acid]
